We go through two molecules from patent publication US20090069419A1, “MASKED CARBOXYLATE NEOPENTYL SULFONYL ESTER CYCLIZATION RELEASE PRODRUGS OF ACAMPROSATE, COMPOSITIONS THEREOF, AND METHODS OF USE” (priority 2007, published 2009).

Usually melting point stands for the temperature of the solid-liquid transition.

One series relates to cocaine conditioned mice. The settings on record: 100 mg/kg for 3 days; cited from earlier work.
For series [1] the following is noted: doses of about 1-2 gm per day, cited from earlier work.
The conditions of series [2]: cited from earlier work.

The molecule `CC(=O)NCCCS(=O)(=O)OCC(C)(C)CCC(=O)O` [Compound 28, 5-{[3-(Acetylamino)propyl]sulfonyloxy}-4,4-dimethylpentanoic Acid] yielded a melting point of 105.3 to 124.9 °C.
For `CC(=O)NCCCS(=O)(=O)O` [acamprosate, 3-(Acetylamino)propylsulfonic acid], in the series on cocaine conditioned mice, the relapse-like behavior entry was “attenuated relapse-like behavior”. For the same molecule, the steady-state plasma concentration in series [1] is 370 to 640 ng/mL. Also, the “time at which steady-state plasma concentration occurs” value in series [1] (post-dose) was 3 to 8 h. The mean elimination half-life in series [2] (following intravenous infusion (15 min)) is 3.2 ± 0.2 h. Besides, the oral bioavailability result in series [2] (humans, oral) is “about 11%”.
